# Assay results taken from ChEMBL document CHEMBL5634161, “Discovery of benzamide-based PI3K/HDAC dual inhibitors with marked pro-apoptosis activity in lymphoma cells” (Eur J Med Chem, 2023).
# Activity calls are given as the source filed them. The calls are words filed in the database; no cut-off is given here.
# How the values were obtained:
# [1] = target: Phosphatidylinositol 4,5-bisphosphate 3-kinase catalytic subunit beta isoform (Homo sapiens, UniProt P42338); test: Inhibition of PI3Kbeta (unknown origin) using PIP2 as substrate incubated for 1 hrs in presence of ATP by ADP-Glo kinase assay
# CYP1A2 = CYP1A2 (Homo sapiens, UniProt P05177); test: Inhibition of CYP1A2 in human liver microsomes using phenacetin as substrate at 10 uM in presence of NADPH regenerating system by LC-MS/MS analysis relative to control; type: ADME, Microsome; details: probe phenacetin
# CYP2C19 = CYP2C19 (Homo sapiens, UniProt P33261); test: Inhibition of CYP2C19 in human liver microsomes using S-mephenytoin as substrate at 10 uM in presence of NADPH regenerating system by LC-MS/MS analysis relative to control; type: ADME, Microsome; details: probe S-mephenytoin
# [2] = target: Phosphatidylinositol 4,5-bisphosphate 3-kinase catalytic subunit alpha isoform (Homo sapiens, UniProt P42336); test: Inhibition of PI3Kalpha (unknown origin) using PIP2 as substrate incubated for 1 hrs in presence of ATP by ADP-Glo kinase assay
# Sequence of Phosphatidylinositol 4,5-bisphosphate 3-kinase catalytic subunit alpha isoform (P42336 whole entry, canonical isoform): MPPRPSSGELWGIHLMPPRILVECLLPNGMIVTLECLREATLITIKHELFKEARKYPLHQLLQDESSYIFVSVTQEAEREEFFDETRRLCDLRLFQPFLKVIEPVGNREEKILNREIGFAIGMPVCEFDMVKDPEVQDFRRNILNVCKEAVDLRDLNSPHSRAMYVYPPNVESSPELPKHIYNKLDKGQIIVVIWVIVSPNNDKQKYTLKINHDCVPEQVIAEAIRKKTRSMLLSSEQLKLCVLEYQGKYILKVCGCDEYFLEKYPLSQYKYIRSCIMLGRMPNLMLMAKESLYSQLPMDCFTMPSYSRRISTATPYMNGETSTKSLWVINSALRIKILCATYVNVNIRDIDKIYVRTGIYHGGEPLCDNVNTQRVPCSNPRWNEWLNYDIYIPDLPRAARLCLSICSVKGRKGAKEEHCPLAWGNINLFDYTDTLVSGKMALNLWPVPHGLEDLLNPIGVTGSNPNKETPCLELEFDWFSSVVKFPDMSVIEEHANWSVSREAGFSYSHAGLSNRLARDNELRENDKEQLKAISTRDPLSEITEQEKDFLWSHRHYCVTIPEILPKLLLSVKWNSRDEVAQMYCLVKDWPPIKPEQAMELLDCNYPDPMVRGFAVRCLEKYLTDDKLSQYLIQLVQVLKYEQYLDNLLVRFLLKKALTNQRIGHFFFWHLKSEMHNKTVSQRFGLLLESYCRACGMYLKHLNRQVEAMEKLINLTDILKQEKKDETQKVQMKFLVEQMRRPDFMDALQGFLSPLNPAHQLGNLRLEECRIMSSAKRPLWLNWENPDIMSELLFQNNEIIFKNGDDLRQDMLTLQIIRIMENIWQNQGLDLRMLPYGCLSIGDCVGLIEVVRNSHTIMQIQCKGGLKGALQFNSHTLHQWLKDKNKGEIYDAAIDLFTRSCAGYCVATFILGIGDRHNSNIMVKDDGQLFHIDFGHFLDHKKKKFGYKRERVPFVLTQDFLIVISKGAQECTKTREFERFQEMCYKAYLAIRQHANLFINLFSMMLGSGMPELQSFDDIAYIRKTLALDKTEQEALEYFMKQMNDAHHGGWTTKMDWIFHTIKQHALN
# Histone deacetylase 1 = Histone deacetylase 1 (Homo sapiens, UniProt Q13547); test: Inhibition of HDAC1 (unknown origin) using Boc-Lys(acetyl)-AMC as substrate preincubated for 1 hrs followed by substrate addition and measured after 2 hrs by spectrophotometer based fluorometric assay
# Histone deacetylase 3 = Histone deacetylase 3 (Homo sapiens, UniProt O15379); test: Inhibition of HDAC3 (unknown origin) using Boc-Lys(acetyl)-AMC as substrate preincubated for 1 hrs followed by substrate addition and measured after 2 hrs by spectrophotometer based fluorometric assay
# Histone deacetylase 4 = Histone deacetylase 4 (Homo sapiens, UniProt P56524); test: Inhibition of HDAC4 (unknown origin) using Boc-Lys(acetyl)-AMC as substrate preincubated for 1 hrs followed by substrate addition and measured after 2 hrs by spectrophotometer based fluorometric assay
# Histone deacetylase 5 = Histone deacetylase 5 (Homo sapiens, UniProt Q9UQL6); test: Inhibition of HDAC5 (unknown origin) using Boc-Lys(acetyl)-AMC as substrate preincubated for 1 hrs followed by substrate addition and measured after 2 hrs by spectrophotometer based fluorometric assay
# [3] = target: Protein deacetylase HDAC6 (Homo sapiens, UniProt Q9UBN7); test: Inhibition of HDAC6 (unknown origin) using Boc-Lys(acetyl)-AMC as substrate preincubated for 1 hrs followed by substrate addition and measured after 2 hrs by spectrophotometer based fluorometric assay
# Sequence of Protein deacetylase HDAC6 (Q9UBN7 whole entry): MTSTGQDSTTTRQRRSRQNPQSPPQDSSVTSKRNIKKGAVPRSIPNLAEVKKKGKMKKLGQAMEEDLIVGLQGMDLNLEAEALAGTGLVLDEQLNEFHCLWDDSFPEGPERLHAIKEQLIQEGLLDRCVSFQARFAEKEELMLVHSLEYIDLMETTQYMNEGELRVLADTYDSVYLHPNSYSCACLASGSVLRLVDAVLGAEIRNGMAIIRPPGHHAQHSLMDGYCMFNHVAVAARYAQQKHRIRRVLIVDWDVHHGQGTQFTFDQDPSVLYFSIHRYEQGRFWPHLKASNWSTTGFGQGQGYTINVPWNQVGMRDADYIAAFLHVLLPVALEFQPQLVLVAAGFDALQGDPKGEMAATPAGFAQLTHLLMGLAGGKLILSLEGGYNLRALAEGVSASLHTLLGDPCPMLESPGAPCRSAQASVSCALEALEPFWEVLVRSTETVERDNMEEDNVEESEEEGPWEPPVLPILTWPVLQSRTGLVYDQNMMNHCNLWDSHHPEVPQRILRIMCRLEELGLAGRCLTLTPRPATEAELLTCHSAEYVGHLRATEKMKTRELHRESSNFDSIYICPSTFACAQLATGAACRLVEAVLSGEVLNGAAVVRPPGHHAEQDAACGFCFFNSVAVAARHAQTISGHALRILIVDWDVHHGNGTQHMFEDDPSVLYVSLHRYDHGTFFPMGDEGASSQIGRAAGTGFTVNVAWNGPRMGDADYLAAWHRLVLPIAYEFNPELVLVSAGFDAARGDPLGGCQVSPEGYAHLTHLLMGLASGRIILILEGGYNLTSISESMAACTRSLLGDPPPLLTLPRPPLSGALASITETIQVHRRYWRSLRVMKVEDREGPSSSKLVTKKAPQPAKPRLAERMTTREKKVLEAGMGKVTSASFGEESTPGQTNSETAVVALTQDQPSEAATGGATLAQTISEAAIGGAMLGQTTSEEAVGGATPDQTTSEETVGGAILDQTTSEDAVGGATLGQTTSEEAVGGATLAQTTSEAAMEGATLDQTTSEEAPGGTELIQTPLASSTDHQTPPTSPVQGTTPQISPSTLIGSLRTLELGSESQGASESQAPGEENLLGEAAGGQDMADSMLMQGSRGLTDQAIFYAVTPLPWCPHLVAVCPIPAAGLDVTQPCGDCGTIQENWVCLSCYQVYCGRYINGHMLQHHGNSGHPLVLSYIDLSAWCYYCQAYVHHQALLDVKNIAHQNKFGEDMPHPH
# Histone deacetylase 9 = Histone deacetylase 9 (Homo sapiens, UniProt Q9UKV0); test: Inhibition of HDAC9 (unknown origin) using Boc-Lys(acetyl)-AMC as substrate preincubated for 1 hrs followed by substrate addition and measured after 2 hrs by spectrophotometer based fluorometric assay
# Sequence of Histone deacetylase 9 (Q9UKV0 whole entry, canonical isoform): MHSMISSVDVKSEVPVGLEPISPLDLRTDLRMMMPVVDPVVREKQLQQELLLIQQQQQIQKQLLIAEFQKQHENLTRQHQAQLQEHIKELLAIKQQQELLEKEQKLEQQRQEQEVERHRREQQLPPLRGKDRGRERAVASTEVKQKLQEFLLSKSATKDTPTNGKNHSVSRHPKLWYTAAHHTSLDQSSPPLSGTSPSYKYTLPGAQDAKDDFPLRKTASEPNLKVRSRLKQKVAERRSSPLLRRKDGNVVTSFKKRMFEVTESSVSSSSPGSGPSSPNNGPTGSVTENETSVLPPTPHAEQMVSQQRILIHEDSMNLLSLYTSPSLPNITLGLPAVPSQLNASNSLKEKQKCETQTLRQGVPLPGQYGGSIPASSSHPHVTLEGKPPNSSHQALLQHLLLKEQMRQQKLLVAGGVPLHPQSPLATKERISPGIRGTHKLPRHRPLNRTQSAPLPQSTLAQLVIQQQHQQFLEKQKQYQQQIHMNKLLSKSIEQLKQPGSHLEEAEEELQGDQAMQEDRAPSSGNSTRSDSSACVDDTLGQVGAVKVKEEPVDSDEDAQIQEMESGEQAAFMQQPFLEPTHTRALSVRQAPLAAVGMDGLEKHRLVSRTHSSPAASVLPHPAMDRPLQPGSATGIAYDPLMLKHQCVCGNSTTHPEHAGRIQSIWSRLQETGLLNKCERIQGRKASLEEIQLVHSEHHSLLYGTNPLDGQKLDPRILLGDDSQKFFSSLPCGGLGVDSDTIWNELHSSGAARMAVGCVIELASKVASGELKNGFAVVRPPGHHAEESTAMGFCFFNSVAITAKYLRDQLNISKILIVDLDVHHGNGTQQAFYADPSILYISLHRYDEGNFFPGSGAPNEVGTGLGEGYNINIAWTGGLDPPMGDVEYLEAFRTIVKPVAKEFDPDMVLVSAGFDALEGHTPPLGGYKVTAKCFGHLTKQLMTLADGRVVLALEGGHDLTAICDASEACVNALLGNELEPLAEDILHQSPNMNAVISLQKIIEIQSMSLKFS
# [4] = target: Phosphatidylinositol 4,5-bisphosphate 3-kinase catalytic subunit delta isoform (Homo sapiens, UniProt O00329); test: Inhibition of PI3Kdelta (unknown origin) using PIP2 as substrate incubated for 1 hrs in presence of ATP by ADP-Glo kinase assay
# Sequence of Phosphatidylinositol 4,5-bisphosphate 3-kinase catalytic subunit delta isoform (O00329 whole entry, canonical isoform): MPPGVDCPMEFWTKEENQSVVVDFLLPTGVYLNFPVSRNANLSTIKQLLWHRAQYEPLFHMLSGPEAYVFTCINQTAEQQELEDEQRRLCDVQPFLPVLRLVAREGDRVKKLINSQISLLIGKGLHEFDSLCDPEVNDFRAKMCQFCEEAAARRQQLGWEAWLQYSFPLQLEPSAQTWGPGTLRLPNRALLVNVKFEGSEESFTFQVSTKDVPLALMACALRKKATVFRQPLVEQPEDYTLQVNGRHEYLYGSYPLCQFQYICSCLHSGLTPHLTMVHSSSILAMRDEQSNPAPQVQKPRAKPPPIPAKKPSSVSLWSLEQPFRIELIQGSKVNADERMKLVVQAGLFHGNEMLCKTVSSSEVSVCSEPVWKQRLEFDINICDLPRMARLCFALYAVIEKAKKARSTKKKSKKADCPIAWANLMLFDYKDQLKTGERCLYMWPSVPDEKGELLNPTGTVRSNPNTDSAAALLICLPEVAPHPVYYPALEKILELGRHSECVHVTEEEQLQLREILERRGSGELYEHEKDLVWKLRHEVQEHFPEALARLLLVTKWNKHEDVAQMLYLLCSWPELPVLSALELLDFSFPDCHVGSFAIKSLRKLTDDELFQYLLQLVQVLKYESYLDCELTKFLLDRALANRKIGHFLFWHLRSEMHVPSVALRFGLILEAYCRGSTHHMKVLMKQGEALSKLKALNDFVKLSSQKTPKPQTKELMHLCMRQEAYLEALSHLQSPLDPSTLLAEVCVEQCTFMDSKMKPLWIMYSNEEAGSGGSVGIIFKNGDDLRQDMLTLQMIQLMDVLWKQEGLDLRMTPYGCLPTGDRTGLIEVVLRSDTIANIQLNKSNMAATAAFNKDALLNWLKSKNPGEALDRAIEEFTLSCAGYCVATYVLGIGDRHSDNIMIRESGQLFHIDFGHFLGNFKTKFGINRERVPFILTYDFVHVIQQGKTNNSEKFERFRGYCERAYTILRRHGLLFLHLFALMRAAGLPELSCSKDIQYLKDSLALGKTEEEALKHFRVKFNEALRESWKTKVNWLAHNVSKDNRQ
# JeKo-1 [5] = test: Antiproliferative activity against human JeKo-1 cells incubated for 48 hrs by resazurin dye based fluorescence micro plate reader analysis; type: functional, cell-based; details: JeKo-1, 48 h
# MDA-MB-231 = test: Antiproliferative activity against human MDA-MB-231 cells incubated for 48 hrs by resazurin dye based fluorescence micro plate reader analysis; type: functional, cell-based; details: MDA-MB-231, 48 h
# JeKo-1 [6] = test: Potency index, ratio of 4-(3-(4-(4-methoxy-6-morpholino-1,3,5-triazin-2-yl)phenyl)urea)-N-(2-ethylamino)ethylbenzamide IC50 to test compound IC50 for antiproliferative activity against human JeKo-1 cells incubated for 48 hrs by resazurin based fluorescence microplate reader analysis; type: functional
# CYP2D6 = CYP2D6 (Homo sapiens, UniProt P10635); test: Inhibition of CYP2D6 in human liver microsomes using bufuralol as substrate at 10 uM in presence of NADPH regenerating system by LC-MS/MS analysis relative to control; type: ADME, Microsome; details: probe bufuralol
# Sequence of CYP2D6 (P10635 whole entry): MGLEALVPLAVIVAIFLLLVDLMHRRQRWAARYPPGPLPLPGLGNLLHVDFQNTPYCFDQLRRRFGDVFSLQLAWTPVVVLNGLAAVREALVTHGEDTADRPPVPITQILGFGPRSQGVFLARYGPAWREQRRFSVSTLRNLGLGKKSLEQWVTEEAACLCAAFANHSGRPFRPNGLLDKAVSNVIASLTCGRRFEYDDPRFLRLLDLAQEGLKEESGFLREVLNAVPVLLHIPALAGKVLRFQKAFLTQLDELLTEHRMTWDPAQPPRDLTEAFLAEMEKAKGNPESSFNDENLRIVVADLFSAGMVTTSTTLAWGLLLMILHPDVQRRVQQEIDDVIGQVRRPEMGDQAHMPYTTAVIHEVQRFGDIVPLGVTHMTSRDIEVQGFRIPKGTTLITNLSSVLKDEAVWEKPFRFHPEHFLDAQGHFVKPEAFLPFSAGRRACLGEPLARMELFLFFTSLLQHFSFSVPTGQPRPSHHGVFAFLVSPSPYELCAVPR
# [7] = Stability in human liver microsomes assessed as compound remaining at […] preincubated for 5 mins followed by NADPH addition and measured immediately by LC-MS/MS analysis; type: ADME, Microsome; details: read-out: Stability
# [8] = Stability in human liver microsomes assessed as compound remaining at […] preincubated for 5 mins followed by NADPH addition and measured after 45 mins by LC-MS/MS analysis; type: ADME, Microsome; details: time 50 min, read-out: Stability
# [9] = Stability in rat liver microsomes assessed as compound remaining at 0.5 mM preincubated for 5 mins followed by NADPH addition and measured immediately by LC-MS/MS analysis; type: ADME, Microsome; details: read-out: Stability
# [10] = Stability in rat liver microsomes assessed as compound remaining at 0.5 mM preincubated for 5 mins followed by NADPH addition and measured after 45 mins by LC-MS/MS analysis; type: ADME, Microsome; details: time 50 min, read-out: Stability
# [11] = Stability in mouse liver microsomes assessed as compound remaining at 0.5 mM preincubated for 5 mins followed by NADPH addition and measured immediately by LC-MS/MS analysis; type: ADME, Microsome; details: read-out: Stability
# [12] = Stability in mouse liver microsomes assessed as compound remaining at […] preincubated for 5 mins followed by NADPH addition and measured after 30 mins by LC-MS/MS analysis; type: ADME, Microsome; details: time 35 min, read-out: Stability
# [13] = Stability in mouse liver microsomes assessed as compound remaining at […] preincubated for 5 mins followed by NADPH addition and measured after 45 mins by LC-MS/MS analysis; type: ADME, Microsome; details: time 50 min, read-out: Stability
# [14] = Stability in human liver microsomes assessed as half-life at […] preincubated for 5 mins followed by NADPH addition and measured upto 45 mins by LC-MS/MS analysis; type: ADME, Microsome; details: time < 50 min
# [15] = Half-life in ICR mouse at 1 mg/kg, iv measured after 24 hrs by LC-MS/MS analysis; type: ADME, organism-based; details: in vivo
# [16] = AUC (0 to infinity) in ICR mouse at 1 mg/kg, iv measured after 24 hrs by LC-MS/MS analysis; type: ADME, organism-based; details: in vivo
# [17] = MRT (0 to infinity) in ICR mouse at 1 mg/kg, iv measured after 24 hrs by LC-MS/MS analysis; type: ADME, organism-based; details: in vivo
# JeKo-1 [18] = test: Induction of apoptosis in human JeKo-1 cells assessed as late apoptotic cells at 0.25 uM incubated for 48 hrs by Annexin-V/FITC and PI staining based flow cytometric analysis (reference value: 3.66%); type: functional
# JeKo-1 [19] = test: Induction of apoptosis in human JeKo-1 cells assessed as viable cells at 0.5 uM incubated for 48 hrs by Annexin-V/FITC and PI staining based flow cytometric analysis (reference value: 94.1%); type: functional; details: read-out: Activity
# JeKo-1 [20] = test: Induction of apoptosis in human JeKo-1 cells assessed as early apoptotic cells at 0.5 uM incubated for 48 hrs by Annexin-V/FITC and PI staining based flow cytometric analysis (reference value: […]); type: functional
# JeKo-1 [21] = test: Induction of apoptosis in human JeKo-1 cells assessed as necrotic cells at 0.5 uM incubated for 48 hrs by Annexin-V/FITC and PI staining based flow cytometric analysis (reference value: 1.05%); type: functional
# JeKo-1 [22] = test: Effect on total AKT protein level in human JeKo-1 cells at 0.25 uM incubated for 24 hrs by Western blot analysis; type: functional, cell-based
# JeKo-1 [23] = test: Inhibition of class 1 HDAC in human JeKo-1 cells assessed as increase in histone H3 acetylation incubated for 24 hrs by Western blot analysis; type: cell-based; details: dose 0.25-1 µM
smiles,measurement,setting,value
COc1nc(-c2ccc(NC(=O)Nc3ccc(C(=O)NCCCCCC(=O)Nc4ccccc4N)cc3)cc2)nc(N2CCOCC2)n1,IC50,[1],29.5 nM
same,inhibition at 10 µM,CYP1A2,2.52%
same,inhibition at 10 µM,CYP2C19,14%
same,IC50,[2],20.3 nM
same,IC50,Histone deacetylase 1,306 nM
same,IC50,Histone deacetylase 3,24.5 nM
same,IC50,Histone deacetylase 4,> 10 µM
same,IC50,Histone deacetylase 5,> 10 µM
same,IC50,[3],> 10 µM
same,IC50,Histone deacetylase 9,> 10 µM
same,IC50,[4],206 nM
same,IC50,JeKo-1 [5],500 nM
same,IC50,MDA-MB-231,1500 nM
same,Ratio IC50,JeKo-1 [6],2
same,inhibition at 10 µM,CYP2D6,48.8%
same,remaining at 0 min,[7],100%
same,remaining at 0.75 h,[8],35.8%
same,remaining at 0 min,[9],100%
same,remaining at 0.75 h,[10],40.2%
same,remaining at 0 min,[11],100%
same,remaining at 0.5 h,[12],45%
same,remaining at 0.75 h,[13],32.8%
same,half-life,[14],30.9 min
same,half-life,[15],600 min
same,AUC(0-inf),[16],2770 ng·h/mL
same,MRT inf,[17],2 h
same,Activity,JeKo-1 [18],15.1%
same,viability at 0.5 µM,JeKo-1 [19],48.8%
same,Activity,JeKo-1 [20],17.8%
same,Activity,JeKo-1 [21],0.49%
same,Activity,JeKo-1 [22],inactive
same,inhibition,JeKo-1 [23],Dose-Dependent Effect
